Assay results reported in patent publication US8357671B2, “High affinity Siglec ligands” (priority 2005, dated 2013).
“And” between values parts separate entries of the source, which are not always exact repeats. Equal values may be shown once.

How the values were obtained:
human CD22 = target: T1, human CD22 (Homo sapiens, UniProt P20273); assay: ELISA inhibition assay: CD22-Fc chimera binding to immobilized NeuAc-LN; conditions: for IC50: inhibition of CD22-Fc binding to immobilized NeuAcα2,6LacNAc, read-out: IC 50 value hCd22; for rIP hCd22 (relative inhibitory potency): relative to NeuAc-LN = 1
T1 construct: made in house
T1 sequence (P20273 with tags, fused parts or gaps limits assumed): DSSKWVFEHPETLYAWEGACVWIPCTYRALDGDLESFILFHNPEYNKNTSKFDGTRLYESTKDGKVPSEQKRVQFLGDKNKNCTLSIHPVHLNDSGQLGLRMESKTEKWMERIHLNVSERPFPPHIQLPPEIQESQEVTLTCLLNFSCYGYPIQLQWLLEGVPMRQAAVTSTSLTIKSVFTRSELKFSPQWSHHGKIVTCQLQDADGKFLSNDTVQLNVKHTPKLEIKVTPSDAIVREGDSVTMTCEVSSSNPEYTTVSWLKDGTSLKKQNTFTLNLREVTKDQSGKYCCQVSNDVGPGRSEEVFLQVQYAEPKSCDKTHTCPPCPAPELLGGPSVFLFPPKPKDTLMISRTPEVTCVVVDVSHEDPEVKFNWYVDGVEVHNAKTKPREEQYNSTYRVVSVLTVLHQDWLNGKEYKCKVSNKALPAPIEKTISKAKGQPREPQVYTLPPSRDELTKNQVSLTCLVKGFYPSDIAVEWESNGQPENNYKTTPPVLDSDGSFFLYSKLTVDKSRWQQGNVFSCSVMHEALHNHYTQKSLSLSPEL
Method: (§1) FIG. 1A-B illustrate that sialosides with derivation at position 9 that includes a neutral core and a hydrophobic moiety are potent inhibitors for CD22. Similar inhibitors can be made by derivation at position 5. […] FIG. 1B graphically illustrates competitive inhibition of selected sialoside inhibitors. Inhibitors were added with soluble CD22-Fc chimeras to block the chimera binding to immobilized NeuAcα2-6Galβ1-4GlcNAc (NeuAc-LN, human CD22, hCD22) or NeuGcα2,6Galβ1-4GlcNAc (NeuGc-LN, mouse CD22, mCD22). Data are the average +/−S.D. of triplicate determinations and are representative of two individual assays.
(§2) ELISA inhibition assays: For inhibition assays, high binding 96 well microtiter plates (Corning Costar) were coated with neutravidin by incubation with 50 ul of 1 mg/ml Neutravidin (Pierce Biotechnology) in 50 mM Na bicarbonate pH 9.5 overnight at 4° C. The wells were then washed with PBS and blocked with PBS containing 5 mg/ml BSA for 1 hr at 37° C. Fifty microliters of a selected biotinylated sialoside (0.33 uM) was added to each well, and allowed to bind for 1 hr at room temperature. The sialoside was then allowed to bind for 1 hr at 37° C. and the wells were washed.
(§3) The CD22-Fc chimera employed was produced as described in Blixt et al. (J. Biol. Chem. 278: 31007-19 (2003)) and diluted to 0.1 mg/ml into HBSS (with 5 mg/ml BSA and 1 mM EDTA). An F(ab′)2 Fragment Goat anti-Human IgG (Jackson Immunoresearch) (0.066 mg/ml) was mixed and allowed to complex with Peroxidase conjugated F(AB′)2 Fragment Rabbit anti Goat F(ab′)2 specific (0.010 mg/ml) for 15 min. CD22-Fc (1.5 ml) was added to 1 ml of the pre-complexed solution and allowed to further associate with complexes in that solution for 15 min. The inhibitor of interest was diluted into HBSS. Twenty-five microliters of the inhibitor and 25 ul of the CD22Fc complex were added to each well and the plates were incubated for 30 min at 37° C. The plates were then washed 4 times with 200 ul of HBSS. Wells were developed with 50 ul of 1 mg/ml OPD (Sigma), 0.03% H2O2 in 50 mM phosphate/citrate, pH 5.0. The reaction was stopped with 50 ul of 2.5 M H2SO4 and the optical density at 450 nm (OD450) was measured.

[1] = target: T2, cell surface CD22 (hCD22) on Daudi cells (Homo sapiens, UniProt P20273); assay: Inhibition of NeuAc-LN-PAA probe binding to sialidase-treated Daudi cells; format: cell-based; conditions: inhibitor 10, 30, 200 uM
T2 construct: endogenous in cells; host or cells: Daudi cells (sialidase-treated)
T2 sequence (P20273 20-847): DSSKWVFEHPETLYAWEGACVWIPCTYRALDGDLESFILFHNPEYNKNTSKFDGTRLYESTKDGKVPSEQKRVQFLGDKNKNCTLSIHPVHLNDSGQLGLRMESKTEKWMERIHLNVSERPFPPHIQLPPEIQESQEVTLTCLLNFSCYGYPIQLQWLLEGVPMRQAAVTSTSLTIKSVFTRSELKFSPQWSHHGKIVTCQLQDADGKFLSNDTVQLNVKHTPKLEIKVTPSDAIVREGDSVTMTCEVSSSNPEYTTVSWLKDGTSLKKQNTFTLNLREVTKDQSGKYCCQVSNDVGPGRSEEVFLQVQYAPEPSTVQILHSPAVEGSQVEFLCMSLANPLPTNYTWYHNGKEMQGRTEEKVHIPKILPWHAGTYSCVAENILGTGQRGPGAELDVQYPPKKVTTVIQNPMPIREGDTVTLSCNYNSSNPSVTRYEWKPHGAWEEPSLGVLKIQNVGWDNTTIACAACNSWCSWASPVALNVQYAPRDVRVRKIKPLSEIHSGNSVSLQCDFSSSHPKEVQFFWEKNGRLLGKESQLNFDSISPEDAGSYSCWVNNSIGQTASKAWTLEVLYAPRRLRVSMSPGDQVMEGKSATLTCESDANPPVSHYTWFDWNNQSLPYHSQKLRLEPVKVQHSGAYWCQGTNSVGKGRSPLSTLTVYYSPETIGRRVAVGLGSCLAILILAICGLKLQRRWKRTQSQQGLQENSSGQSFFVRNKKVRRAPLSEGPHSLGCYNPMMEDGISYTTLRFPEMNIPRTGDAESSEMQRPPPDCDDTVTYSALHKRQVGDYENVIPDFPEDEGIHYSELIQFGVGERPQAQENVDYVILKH
Method: FIG. 2A-B illustrate inhibition of multivalent sialoside probe binding to cell surface CD22 by potent biphenyl (BP) derivatives. FIG. 2A provides the results for murine splenocytes. Murine splenocytes were mock-treated (grey shaded peak) or actually treated with A. ureafaciens sialidase to cleave sialic acid-containing glycans from cell surfaces and thereby ‘unmask’ surface CD22. The cells were then incubated with NeuGc-LN-PAA alone (rightmost Black line, where PAA refers to a polyacrylamide carrier) or in the presence of 5 uM (light line to the right of center), 200 uM (central grey line) or 2 mM (leftmost dark grey line) of the indicated inhibitor for 1.5 h on ice, then washed. Bound probe was detected with streptavidin-PE, and B cells stained with anti-B220. Data are for B220+ cells only. FIG. 2B provides results for Daudi Cells. […] Bound probe was detected with streptavidin-PE and measured by flow cytometry. […]
Inhibition of Probe-Binding to B cells by Sialic Acid Inhibitors. […] These “cis” glycan ligands can mask binding of sialic acid ligands provided in “trans.” After treatment with sialidase, inhibition of B cell binding by monovalent BPC-NeuAc-LN and BPA-NeuGc-LN was detected for multivalent polyacrylamide (PAA) sialoside probes derivatized with NeuAc-LN (hCD22) or NeuGc-LN (mCD22) (FIG. 2).

mouse CD22 = target: T3, mouse CD22 (Mus musculus, UniProt P35329); assay: ELISA inhibition assay: CD22-Fc chimera binding to immobilized NeuGc-LN; conditions: for IC50: inhibition of CD22-Fc binding to immobilized NeuGcα2,6LacNAc, read-out: IC 50 value mCd22; for rIP mCd22 (relative inhibitory potency): relative to NeuGc-LN = 1
T3 construct: made in house
T3 sequence (P35329 with tags, fused parts or gaps limits assumed): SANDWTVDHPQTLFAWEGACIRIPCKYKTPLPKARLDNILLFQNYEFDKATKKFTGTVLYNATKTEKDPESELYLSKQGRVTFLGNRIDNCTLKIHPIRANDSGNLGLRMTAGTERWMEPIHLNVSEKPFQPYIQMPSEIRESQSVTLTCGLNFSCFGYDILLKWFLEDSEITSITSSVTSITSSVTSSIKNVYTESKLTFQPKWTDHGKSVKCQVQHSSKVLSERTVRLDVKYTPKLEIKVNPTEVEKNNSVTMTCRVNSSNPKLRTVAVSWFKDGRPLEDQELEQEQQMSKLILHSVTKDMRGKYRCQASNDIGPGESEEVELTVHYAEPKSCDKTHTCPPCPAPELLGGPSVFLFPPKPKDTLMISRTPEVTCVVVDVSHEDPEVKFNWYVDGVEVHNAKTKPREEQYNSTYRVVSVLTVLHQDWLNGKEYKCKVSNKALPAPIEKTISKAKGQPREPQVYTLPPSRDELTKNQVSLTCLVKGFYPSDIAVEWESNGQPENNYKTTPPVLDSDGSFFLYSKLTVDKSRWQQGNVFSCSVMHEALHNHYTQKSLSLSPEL
Method: as §1, §2, §3

[2] = target: T4, CD22 on sialylated (native) BJAB cells (Homo sapiens, UniProt P20273); assay: Self-assembled IgM complex binding to sialylated BJAB cells; format: cell-based; conditions: high concentration of cis ligands
T4 construct: endogenous in cells; host or cells: BJAB cells (incl. K20 subclone)
T4 sequence (P20273 20-847): T2 sequence (P20273 20-847)

[3] = target: T5, CD22 on asialo K20 cells (BJAB subclone) (Homo sapiens, UniProt P20273); assay: Self-assembled IgM complex binding to asialo cells
T5 sequence (P20273 20-847): T2 sequence (P20273 20-847)
Method: Following washing, bound IgM was detected with FITC-labeled anti-Ig and read by flow cytometry. […] Free NP, the heterobifunctional ligand, and the IgM anti-NP were all added to BJAB cells and allowed to incubate on ice before washing. Bound IgM was detected as described for FIG. 5B. […] After binding of a self-assembled complex of NP-BPC and Alexa Fluor-labeled anti-NP IgM antibodies to BJAB cells on ice, the cells were washed and allowed to internalize the complex for the indicated period of time. After a brief acid wash to remove any surface IgM, internalized IgM was quantified by flow cytometry.
Cell Binding. BJAB cells, incubated with or without exogenous sialic acid (4 mM) for 2 days, were resuspended in HBSS/BSA at a density of 1×10^6 cells/ml and the varying amounts of IgM and the BPC-NP construct shown in FIG. 7 were added to the cells and allowed to bind for 1 hr on ice. Cells were then washed with 1 ml of HBSS/BSA and then incubated with FITC-labeled anti-IgM for 30 min on ice. After washing again, the cells were read by flow cytometry.
To further evaluate the ability for the IgM complex to bind to CD22 on B cells, cells deficient in cell-surface sialic acid were used.

[4] = target: T6, CD22Fc chimeras (hCD22Fc) (Homo sapiens, UniProt P20273); assay: ELISA-type assay of IgM/NP-BPC/CD22 complex formation; format: binding
T6 construct: made in house; host or cells: COS cells
T6 sequence (P20273 with tags, fused parts or gaps limits assumed): as the sequence (P20273 with tags, fused parts or gaps limits assumed) above
Method: FIG. 7A-7C illustrate a self-assembling B cell targeting complex as one aspect of the invention. […] CD22-Fc chimeras were immobilized onto protein A coated wells. After washing, the indicated amount of either NP, or NP-BPC was added along with the anti-NP IgM was added and allowed to bind for 30 min at room temperature. After washing, bound IgM was detected with HRP-conjugated anti-IgM and developed with OPD. Data are the average ±S.D. of triplicates, and are representative of 3 independent experiments.
ELISA-Type Assay. High Binding microtiter plates were coated with neutravidin (1 ug/50 ul/well in Na Bicarbonate pH 9.5) overnight at 4° C., then washed with 200 ul of HBSS/BSA. Culture supernatants containing hCD22Fc chimera were incubated in the wells for 2 h at room temperature. Wells were then washed and a mixture of IgM antibodies that recognize nitrophenyl groups (anti-NP antibodies) and 50 ul of varying concentrations of the BPC-Siaα2-6LN heterobifunctional ligand were added. The plates were allowed to bind for 30 min. […]
CD22Fc chimeras were immobilized onto microtiter plates and overlaid with mixtures of IgM anti-NP and NP or NP-BPC. Following washing, bound IgM complex was detected with HRP-conjugated anti-Ig antibodies. CD22-dependent binding of the complex was detected, with maximal IgM complex binding achieved when using less than 200 nM NP-BPC.

Siglec 10 = assay: PAA probe binding to Siglec 10; conditions: result in words
Text: Building on the binding studies described above, polyacrylamide (PAA) probes containing the BPA-NeuGc-LN or BPC-NeuAc-LN sialosides were synthesized and tested for binding to CD22. […] Siglec 10 another B cell lectin, however, binds well to the NeuGc-LN glycan, but in contrast to CD22, only weakly to the high molecular weight BPA derivative.

BJAB cells = assay: Measurement of probe internalization; format: cell-based, human; conditions: caveolin inhibitor
Method: To generate the data shown in FIG. 5A, BJAB cells grown in the presence of sera and supplemented with NeuAc were incubated with the high molecular weight BPC-NeuAc-LN-PAA (light and heavy lines) or LN-PAA (Shaded) probes for 1.5 h on ice, followed by CyChrome labeled streptavidin for 45 min on ice. After washing, the cells were then incubated at 37° C. for the indicated period of time. Following this incubation, cells were washed with HBSS/BSA (shaded peak and heavy line) or RPMI pH 2.5 (light line). Bound or internalized probe was detected by flow cytometry. To generate the data shown in FIG. 5B, cells were washed with RPMI:Water (1/1) and then incubated for 1 hr in media with or without potassium. After pre-chilling on ice, cells were incubated in the corresponding media with the BPC-NeuAc-LN-PAA probe and then internalization was measured as above. Data are the average of two independent experiments.
Measurement of probe internalization. BJAB cells (2×10^6 cell/ml) were labeled with the PAA probe and streptavidin as above. Following staining, aliquots of 100 ul of the cell suspension were placed on ice or at 37° C. for selected periods of time. […]
Similarly, the ability for B cells to endocytose the PAA probes was determined. […] The remaining fluorescence as measured by flow cytometry as a measure of the amount of internalized probe.

Row | Compound | IC50 (human CD22) | rIP hCd22 (relative inhibitory potency) (human CD22) | inhibition of NeuAc-LN-PAA probe binding [1] | IC50 (mouse CD22) | rIP mCd22 (relative inhibitory potency) (mouse CD22) | binding to CD22 on sialylated BJAB cells [2] | concentration at maximal binding of the complex [3] | concentration for maximal IgM complex binding [4] | inhibition of Siglec binding to immobilized sialoside (human CD22; result in words) | binding to Siglec 10 (Siglec 10) | effect on probe internalization (BJAB cells)
1 | 9-biphenylcarbonyl (BPC)-Neu5Acα2-6Galβ1-4GlcNAc [BPC-NeuAcLN] | 2 µM and 2.2 µM | 100 | complete inhibition | 242 µM | 0.91 | – | – | – | – | – | –
2 | CC(=O)NC1C(O)CC(O)(C(=O)O)OC1C(O)C(O)CNC(=O)c1ccc(-c2ccccc2)cc1 [BPC-NeuAc, 5-Acetamido-9-[(1,1′-biphenyl)-4-carboxamido]-3,5,9-trideoxy-D-glycero-D-galacto-2-nonulo-pyranosyl-onate] | 35 µM | 6.3 | – | 1500 µM | 0.15 | – | – | – | – | – | –
3 | CC(=O)N[C@H]1[C@H](OCCNC(=O)Cc2ccc(O)c([N+](=O)[O-])c2)O[C@H](CO)[C@@H](O[C@@H]2O[C@H](CO[C@]3(C(=O)O)C[C@H](O)[C@@H](NC(C)=O)[C@H]([C@H](O)[C@H](O)CNC(=O)c4ccc(-c5ccccc5)cc4)O3)[C@H](O)[C@H](O)[C@H]2O)[C@@H]1O [NP-BPC, [(4′-hydroxyl-3′-nitrophenylacetamido)-ethyl-β-]-[[5-Acetamido-9-[(1,1′-biphenyl)-4-carboxamido]-3,5,9,trideoxy-D-glycero-D-galacto-2-nonulo-pyranosyl-onate-α2-6-O-D-galactopyranosyl-β1-4]]-D-2-acetamido-2-deoxy-glucopyranoside] | – | – | – | – | – | bound efficiently | 0.16 µM | less than 200 nM | – | – | –
4 | CC(=O)N[C@H]1[C@H]([C@H](O)[C@H](O)CO)OC(O)(C(=O)O)C[C@@H]1O (stereo partly drawn) [NeuAc, N-acetylneuraminic acid] | > 2000 µM | <0.1 | – | > 2000 µM | <0.1 | – | – | – | no inhibition | – | –
5 | CC(=O)N[C@@H]1[C@@H](O)[C@H](O[C@@H]2O[C@H](CO[C@]3(C(=O)O)C[C@H](O)[C@@H](NC(C)=O)[C@H]([C@H](O)[C@H](O)CO)O3)[C@H](O)[C@H](O)[C@H]2O)[C@@H](CO)O[C@H]1O [NeuAc-LN, NeuAcα2-6Galβ1-4GlcNAc] | 200 µM and 220 µM | 1 | – | > 2000 µM | <0.1 | – | – | – | – | – | –
6 | CC(=O)NC1C(O)OC(CO)C(OC2OC(COC3(C(=O)O)CC(O)C(NC(=O)CO)C(C(O)C(O)CO)O3)C(O)C(O)C2O)C1O (stereo not drawn) [NeuGc-LN, NeuGcα2,6Galβ1-4GlcNAc] | 260 µM | 0.85 | – | 221 µM | 1 | – | – | – | – | binds well | –
7 | C[C@@H]1[C@H](O)[C@@H](C)/C=C/C=C/CC/C=C/C=C/C=C/C=C/C(O[C@H]2O[C@H](C)[C@@H](O)[C@H](N)[C@@H]2O)CC2O[C@](O)(CC(O)C(O)CCC(O)CC(O)CC(O)CC(=O)O[C@H]1C)CC(O)C2C(=O)O (stereo partly drawn) [nystatin] | – | – | – | – | – | – | – | – | – | – | did not inhibit
